In patent US7592457B2 (Korea Research Institute of Chemical Technology, priority 2004, dated 2009):

What was measured:
[1] = target: T1, human serotonin 5-HT6 receptor (Homo sapiens, UniProt P50406); assay: [3H]LSD binding at cloned 5-HT6 receptors; conditions: for IC50: [3H]LSD 1.87 nM, cloned receptor membranes, 37° C., 60 min, read-out: IC50; for inhibition at 10 µM: read-out: Binding affinity (Inhibition rate % at 10 μM) 5HT6; for 5-HT6 affinity compared with known selective antagonists: in words
T1 construct: made in house; host or cells: Sf21 insect cells (pBacPAK8 baculovirus vector)

5-HT7 = target: T2, 5-HT7 (Homo sapiens, UniProt P34969); assay: Radioligand binding, 5-HT7 ([3H]LSD); conditions: read-out: Binding affinity (Inhibition rate % at 10 μM) 5HT7
T2 construct: purchased Euroscreen/BioSignal Packard Inc
Protocol: (§1) Radioligand bindings were performed according to the test method provided by the supplier of receptor membrane (Euroscreen/BioSignal Packard Inc.).

hD3 receptor = target: T3, hD3 receptor (Homo sapiens, UniProt P35462); assay: Radioligand binding, dopamine D3 ([3H]spiperone); conditions: read-out: Binding affinity (Inhibition rate % at 10 μM) D3
T3 construct: purchased BioSignal Packard Inc., Montreal, Canada

5-HT2c = target: T4, 5-HT2c (Homo sapiens, UniProt P28335); assay: Radioligand binding, 5-HT2c ([3H]Mesulergine); conditions: read-out: Binding affinity (Inhibition rate % at 10 μM) 5HT2c
T4 construct: purchased Euroscreen/BioSignal Packard Inc
T4 sequence (P28335 33-458): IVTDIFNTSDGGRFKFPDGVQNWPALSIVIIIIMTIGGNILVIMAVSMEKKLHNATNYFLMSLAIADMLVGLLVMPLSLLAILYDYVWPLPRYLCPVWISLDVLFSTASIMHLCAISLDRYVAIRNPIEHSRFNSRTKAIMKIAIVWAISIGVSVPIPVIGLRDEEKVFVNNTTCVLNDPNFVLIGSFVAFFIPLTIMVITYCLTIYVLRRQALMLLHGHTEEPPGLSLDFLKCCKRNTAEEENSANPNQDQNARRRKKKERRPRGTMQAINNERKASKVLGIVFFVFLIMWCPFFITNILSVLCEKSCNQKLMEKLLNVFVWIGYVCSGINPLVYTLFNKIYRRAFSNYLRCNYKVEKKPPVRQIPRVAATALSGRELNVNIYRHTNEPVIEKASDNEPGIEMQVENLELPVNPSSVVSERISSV
Protocol: as §1

D1 = D1 (Homo sapiens, UniProt P21728); assay: Radioligand binding for selectivity, D1; conditions: read-out: Binding affinity (Inhibition rate % at 10 μM) D1
hD4.2 receptor = target: T5, hD4.2 receptor (Homo sapiens, UniProt P21917, DEL265-296); assay: Radioligand binding, dopamine D4 ([3H]YM-09151-2); conditions: read-out: Binding affinity (Inhibition rate % at 10 μM) D4
T5 construct: purchased BioSignal Packard Inc., Montreal, Canada
T5 sequence (P21917 with tags, fused parts or gaps DEL265-296): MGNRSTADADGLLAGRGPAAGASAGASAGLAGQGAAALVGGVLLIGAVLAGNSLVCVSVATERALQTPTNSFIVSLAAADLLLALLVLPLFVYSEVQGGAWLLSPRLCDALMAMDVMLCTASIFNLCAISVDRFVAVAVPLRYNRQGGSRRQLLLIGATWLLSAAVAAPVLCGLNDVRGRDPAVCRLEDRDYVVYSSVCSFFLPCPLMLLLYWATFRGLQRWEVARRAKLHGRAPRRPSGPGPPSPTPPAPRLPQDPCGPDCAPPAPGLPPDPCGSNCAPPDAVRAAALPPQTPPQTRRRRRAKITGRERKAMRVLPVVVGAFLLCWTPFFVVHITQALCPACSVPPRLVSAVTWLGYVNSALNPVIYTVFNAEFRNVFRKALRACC

5-HT2a = target: T6, 5-HT2a (Homo sapiens, UniProt P28223); assay: Radioligand binding, 5-HT2a ([3H]Ketanserin); conditions: read-out: Binding affinity (Inhibition rate % at 10 μM) 5HT2a
T6 construct: purchased Euroscreen/BioSignal Packard Inc
Protocol: as §1

hD2L receptor = target: T7, hD2L receptor (Homo sapiens, UniProt P14416); assay: Radioligand binding, dopamine D2 ([3H]spiperone); conditions: read-out: Binding affinity (Inhibition rate % at 10 μM) D2
T7 construct: purchased BioSignal Packard Inc., Montreal, Canada

5-HT1a = target: T8, 5-HT1a (Homo sapiens, UniProt P08908); assay: Radioligand binding, 5-HT1a ([3H]8-OH-DPAT); conditions: read-out: Binding affinity (Inhibition rate % at 10 μM) 5HT1a
T8 construct: purchased Euroscreen/BioSignal Packard Inc
T8 sequence (P08908 1-422): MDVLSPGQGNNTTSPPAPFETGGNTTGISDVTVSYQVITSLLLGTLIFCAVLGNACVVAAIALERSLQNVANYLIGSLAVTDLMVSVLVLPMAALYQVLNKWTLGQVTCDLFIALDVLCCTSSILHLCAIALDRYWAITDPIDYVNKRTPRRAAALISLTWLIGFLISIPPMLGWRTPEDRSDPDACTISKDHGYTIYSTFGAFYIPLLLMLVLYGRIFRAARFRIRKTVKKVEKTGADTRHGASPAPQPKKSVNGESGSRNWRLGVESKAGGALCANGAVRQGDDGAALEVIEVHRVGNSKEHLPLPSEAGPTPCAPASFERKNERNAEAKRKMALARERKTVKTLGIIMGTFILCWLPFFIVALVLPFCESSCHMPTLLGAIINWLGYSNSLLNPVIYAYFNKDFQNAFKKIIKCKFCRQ
Protocol: as §1

T7 sequence (P14416 whole entry): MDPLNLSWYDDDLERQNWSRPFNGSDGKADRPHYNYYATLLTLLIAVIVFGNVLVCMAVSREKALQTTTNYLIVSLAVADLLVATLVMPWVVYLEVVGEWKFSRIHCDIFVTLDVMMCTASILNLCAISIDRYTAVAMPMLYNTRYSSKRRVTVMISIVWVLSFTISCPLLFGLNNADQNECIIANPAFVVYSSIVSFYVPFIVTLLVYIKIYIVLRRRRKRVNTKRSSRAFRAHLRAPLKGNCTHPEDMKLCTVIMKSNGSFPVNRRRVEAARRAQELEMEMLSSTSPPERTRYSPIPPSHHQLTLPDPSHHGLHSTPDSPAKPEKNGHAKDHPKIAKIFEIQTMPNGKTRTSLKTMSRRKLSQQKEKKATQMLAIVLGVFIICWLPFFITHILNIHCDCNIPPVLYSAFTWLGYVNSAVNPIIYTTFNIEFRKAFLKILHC
T2 sequence (P34969 whole entry): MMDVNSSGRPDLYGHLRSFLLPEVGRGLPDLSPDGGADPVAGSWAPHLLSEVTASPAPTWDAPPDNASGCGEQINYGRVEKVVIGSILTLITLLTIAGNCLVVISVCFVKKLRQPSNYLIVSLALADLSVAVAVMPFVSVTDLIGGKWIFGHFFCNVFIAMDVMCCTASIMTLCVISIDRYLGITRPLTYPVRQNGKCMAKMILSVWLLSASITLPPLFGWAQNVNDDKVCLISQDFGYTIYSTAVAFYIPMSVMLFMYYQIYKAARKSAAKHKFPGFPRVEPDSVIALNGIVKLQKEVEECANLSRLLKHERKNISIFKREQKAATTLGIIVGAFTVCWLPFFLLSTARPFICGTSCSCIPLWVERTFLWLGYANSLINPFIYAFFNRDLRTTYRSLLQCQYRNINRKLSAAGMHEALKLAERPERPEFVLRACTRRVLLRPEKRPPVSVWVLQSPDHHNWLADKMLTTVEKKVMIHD
T6 sequence (P28223 whole entry): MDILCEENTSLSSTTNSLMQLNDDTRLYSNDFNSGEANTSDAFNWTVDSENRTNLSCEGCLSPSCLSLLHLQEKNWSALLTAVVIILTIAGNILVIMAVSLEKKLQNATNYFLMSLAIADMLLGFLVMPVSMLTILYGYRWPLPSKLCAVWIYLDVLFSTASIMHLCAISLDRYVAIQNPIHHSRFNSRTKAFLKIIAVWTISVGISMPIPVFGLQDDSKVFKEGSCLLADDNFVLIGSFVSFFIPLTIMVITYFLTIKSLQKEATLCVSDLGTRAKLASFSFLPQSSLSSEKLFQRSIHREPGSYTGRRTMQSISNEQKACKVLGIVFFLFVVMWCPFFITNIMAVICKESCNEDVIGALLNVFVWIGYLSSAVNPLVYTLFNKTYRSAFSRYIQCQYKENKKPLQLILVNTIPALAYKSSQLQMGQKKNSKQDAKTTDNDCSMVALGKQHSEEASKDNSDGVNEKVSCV
T3 sequence (P35462 whole entry): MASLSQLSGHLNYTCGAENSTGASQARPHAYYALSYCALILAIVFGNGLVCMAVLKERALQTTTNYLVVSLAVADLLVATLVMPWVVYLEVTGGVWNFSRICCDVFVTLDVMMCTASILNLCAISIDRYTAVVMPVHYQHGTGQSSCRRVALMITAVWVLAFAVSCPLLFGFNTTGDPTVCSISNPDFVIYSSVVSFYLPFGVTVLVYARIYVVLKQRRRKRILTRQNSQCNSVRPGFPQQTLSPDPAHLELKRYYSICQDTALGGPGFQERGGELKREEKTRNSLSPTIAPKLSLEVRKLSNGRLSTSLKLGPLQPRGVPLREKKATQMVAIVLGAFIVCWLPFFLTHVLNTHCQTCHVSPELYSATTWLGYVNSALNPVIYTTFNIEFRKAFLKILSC
D1, sequence (P21728 whole entry): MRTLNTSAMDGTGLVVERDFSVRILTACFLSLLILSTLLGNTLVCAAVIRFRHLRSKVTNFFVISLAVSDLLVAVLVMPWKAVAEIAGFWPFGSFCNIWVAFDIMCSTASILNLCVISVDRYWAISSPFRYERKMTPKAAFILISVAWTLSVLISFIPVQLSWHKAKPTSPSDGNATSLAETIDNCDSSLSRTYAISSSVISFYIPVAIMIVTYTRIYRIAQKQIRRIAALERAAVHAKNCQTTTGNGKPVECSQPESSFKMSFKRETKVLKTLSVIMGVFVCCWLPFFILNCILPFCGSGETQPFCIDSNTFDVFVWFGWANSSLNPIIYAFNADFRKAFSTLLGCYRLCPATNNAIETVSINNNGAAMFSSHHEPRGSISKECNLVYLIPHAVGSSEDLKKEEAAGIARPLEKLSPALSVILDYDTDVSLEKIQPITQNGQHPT
T1 sequence (P50406 whole entry): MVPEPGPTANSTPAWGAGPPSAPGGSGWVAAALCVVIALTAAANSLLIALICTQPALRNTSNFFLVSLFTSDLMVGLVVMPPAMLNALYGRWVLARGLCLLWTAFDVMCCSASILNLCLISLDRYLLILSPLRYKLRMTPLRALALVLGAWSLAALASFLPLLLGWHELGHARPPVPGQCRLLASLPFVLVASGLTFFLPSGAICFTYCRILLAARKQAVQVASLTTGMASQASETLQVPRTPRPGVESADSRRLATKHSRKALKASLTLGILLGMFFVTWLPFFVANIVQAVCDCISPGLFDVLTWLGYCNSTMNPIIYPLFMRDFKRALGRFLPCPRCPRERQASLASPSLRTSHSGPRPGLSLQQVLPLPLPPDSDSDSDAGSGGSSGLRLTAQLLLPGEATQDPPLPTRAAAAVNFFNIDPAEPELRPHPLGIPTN

| SMILES | IC50 [1] [nM] | inhibition at 10 µM [1] [%] | inhibition at 10 µM (5-HT7) [%] | inhibition at 10 µM (hD3 receptor) [%] | inhibition at 10 µM (5-HT2c) [%] | inhibition at 10 µM (D1) [%] | melting point | inhibition at 10 µM (hD4.2 receptor) [%] | inhibition at 10 µM (5-HT2a) [%] | inhibition at 10 µM (hD2L receptor) [%] | inhibition at 10 µM (5-HT1a) [%] | 5-HT6 affinity compared with known selective antagonists [1] |
| --- | --- | --- | --- | --- | --- | --- | --- | --- | --- | --- | --- | --- |
| CN1CCN(c2ccc3c(c2)NC(=O)C(C)(c2ccc([N+](=O)[O-])cc2)C3=O)CC1 (stereo not shown) [Example 51, 3-methyl-7-(4-methyl-piperazine-1-yl)-3-(4-nitro-phenyl)-1H-quinoline-2,4-dione] | 904 | 73.5 | 17.5 | 13.5 | 20.3 | 40.9 | 150 to 151 °C | 0 | 26.4 | 7.4 | 44.2 | – |
| CC1(c2ccc(Br)cc2)C(=O)Nc2cc(Cl)cc(Cl)c2C1=O (stereo not shown) [Example 18, 3-(4-bromo-phenyl)-5,7-dichloro-3-methyl-1H-quinoline-2,4-dione] | 494 | 73.8 | 7.8 | 12.5 | 10.7 | 37.7 | 237 to 238 °C | 0 | 16.9 | 16 | 8 | – |
| CC1(c2ccccc2)C(=O)Nc2cc(Cl)ccc2C1=O (stereo not shown) [Example 3, 7-chloro-3-methyl-3-phenyl-1H-quinoline-2,4-dione] | 2470 | 69 | 7 | 10.9 | 8.9 | 25.5 | 174 to 175 °C | 0 | 12 | 4.9 | 40.2 | – |
| COc1cc(Cl)c2c(c1)NC(=O)C(C)(c1ccc(Br)cc1)C2=O (stereo not shown) [Example 52, 3-(4-bromo-phenyl)-5-chloro-7-methoxy-3-methyl-1H-quinoline-2,4-dione] | 73 | 89.6 | 8.8 | 7.4 | 20 | 41.5 | 239 to 240 °C | 0 | 30.6 | 9.3 | 7.8 | almost same affinities as or better affinities than known selective antagonists |
| CC1(c2cccc(OCc3ccccc3)c2)C(=O)Nc2cc(Cl)cc(Cl)c2C1=O (stereo not shown) [Example 19, 3-(3-benzyloxy-phenyl)-5,7-dichloro-3-methyl-1H-quinoline-2,4-dione] | 134 | 74.9 | 69.5 | 37.4 | 0 | 92.6 | 201 to 203 °C | 0 | 67.3 | 37.8 | 88.8 | – |
| CC1(c2cccc(O)c2)C(=O)Nc2cc(Cl)cc(Cl)c2C1=O (stereo not shown) [Example 20, 3-(3-hydroxy-phenyl)-5,7-dichloro-3-methyl-1H-quinoline-2,4-dione] | 49 | 91.7 | 29.2 | 13.2 | 4.7 | 64.6 | 248 °C (dec.) | 0 | 46.1 | 10.9 | 0 | almost same affinities as or better affinities than known selective antagonists |
| CN(C)c1ccc(C2(C)C(=O)Nc3cc(Cl)cc(Cl)c3C2=O)cc1 (stereo not shown) [Example 40, 5,7-dichloro-3-(4-dimethylamino-phenyl)-3-methyl-1H-quinoline-2,4-dione] | 563 | 67.2 | 30.3 | 4.5 | 6.5 | 40.8 | 268 to 269 °C | 0 | 42.2 | 10.5 | 50.2 | – |
| CC1(c2ccccc2)C(=O)Nc2cc(Cl)c(Cl)cc2C1=O (stereo not shown) [Example 9, 6,7-dichloro-3-methyl-3-phenyl-1H-quinoline-2,4-dione] | 1060 | 71.2 | 10.8 | 10.8 | 30.4 | 26.2 | 213 to 214 °C | 0 | 16.6 | 8.2 | 45.2 | – |
| CC1(c2ccccc2)C(=O)Nc2ccccc2C1=O (stereo not shown) [Example 2, 3-methyl-3-phenyl-1H-quinoline-2,4-dione] | 1080 | 73.2 | 10.4 | 12.2 | 30.6 | 10.2 | 194 to 196 °C | 0 | 8.4 | 5.6 | 15 | – |
| CC1(c2ccc(N)cc2)C(=O)Nc2cc(Cl)ccc2C1=O (stereo not shown) [Example 38, 3-(4-amino-phenyl)-7-chloro-3-methyl-1H-quinoline-2,4-dione] | 585 | 74.1 | 17.4 | 16.8 | 20.7 | 44.3 | 155 to 156 °C | 5.8 | 31.5 | 16.5 | 51.9 | – |
